Data as given in US20240101546A1, “HETEROARYL-ACETYLENES, PHARMACEUTICAL COMPOSITIONS THEREOF, AND THEIR THERAPEUTIC APPLICATIONS” (Eubulus Biotherapeutics Inc., priority 2020, published 2024).

test system: lung cancer cell line NCI-H82; assay: Cell proliferation assay, NCI-H82 (CELL-TITER GLO); format: cell-based; settings: Homo sapiens, NCI-H82, 72 h, NCI-H82 cells, 72 h incubation, cell viability by CELL-TITER GLO, top concentration 1 μM; read-out: EC50, Inhibition of NCl-H82 Cell Proliferation
Procedure: The activity of a compound was determined in a cell proliferation assay using the lung cancer cell line NCI-H82. Cells (1,000 cells per well) were cultured with RPMI1640 in a 384-well tissue culture plate. After incubated overnight, the compound was added at predetermined concentrations, starting with 1 μM and followed by a 3-fold serial dilution. After the cells were incubated for 72 h, cell viability was determined using a CELL-TITER GLO assay. The CELL-TITER GLO reagent (25 μL) was added to each well and the luminescence was measured by a multimode microplate reader after a brief period of shaking. EC50 values were determined for the compound. The results are summarized in Table 1, wherein A represents a value no greater than 200 nM, B represents a value greater than 200 nM but no greater than 1 μM, C represents a value greater than 1 μM but no greater than […], and D represents a value greater than 5 μM.

SMILES | EC50
C#Cc1nc(NC(=O)NCC(=O)N2CCC(c3ccccc3C#N)CC2)cs1 [Compound A35, 1-(2-(4-(2-Cyanophenyl)piperidin-1-yl)-2-oxoethyl)-3-(2-ethynylthiazol-4-yl)urea] | 0.2 to 1 µM
C#Cc1nc(NC(=O)N[C@@H](COC(N)=O)c2ccc(-c3cc(C#N)ccn3)cc2)cs1 [Compound A48, (R)-2-(4-(4-Cyanopyridin-2-yl)phenyl)-2-(3-(2-ethynylthiazol-4-yl)ureido)ethyl carbamate] | ≤ 0.2 µM
C#Cc1nc(NC(=O)N[C@@H](COC(N)=O)c2ccc(-c3cccc4ccncc34)cc2)cs1 [Compound A49, (R)-2-(3-(2-Ethynylthiazol-4-yl)ureido)-2-(4-(isoquinolin-8-yl)phenyl)ethyl carbamate] | ≤ 0.2 µM
C#Cc1nc(NC(=O)N[C@@H](COC(N)=O)c2ccc(-c3cccc4cncnc34)cc2)cs1 [Compound A50, (R)-2-(3-(2-Ethynylthiazol-4-yl)ureido)-2-(4-(quinazolin-8-yl)phenyl)ethyl carbamate] | ≤ 0.2 µM
C#Cc1nc(NC(=O)N[C@@H](COC(N)=O)c2ccc(-c3cccc4nccnc34)cc2)cs1 [Compound A51, (R)-2-(3-(2-Ethynylthiazol-4-yl)ureido)-2-(4-(quinoxalin-5-yl)phenyl)ethyl carbamate] | ≤ 0.2 µM
C#Cc1nc(NC(=O)N[C@@H](CO)c2ccc(-c3c(C#N)ccc4cccnc34)cc2)cs1 [Compound A52, (R)-1-(1-(4-(7-Cyanoquinolin-8-yl)phenyl)-2-hydroxyethyl)-3-(2-ethynylthiazol-4-yl)urea] | ≤ 0.2 µM
C#Cc1nc(NC(=O)N[C@@H](CO)c2ccc(-c3cccc4c3c(C#N)nn4C)cc2)cs1 [Compound A53, (R)-1-(1-(4-(3-Cyano-1-methyl-1H-indazol-4-yl)phenyl)-2-hydroxyethyl)-3-(2-ethynylthiazol-4-yl)urea] | ≤ 0.2 µM
C#Cc1nc(NC(=O)N[C@@H](CO)c2ccc(-c3ccccc3C3(C#N)CC3)cc2)cs1 [Compound A54, (R)-1-(1-(2′-(1-Cyanocyclopropyl)-[1,1′-biphenyl]-4-yl)-2-hydroxyethyl)-3-(2-ethynylthiazol-4-yl)urea] | ≤ 0.2 µM
C#Cc1nc(NC(=O)N[C@@H](COC(N)=O)c2ccc(-c3ccccc3C3(C#N)CC3)cc2)cs1 [Compound A55, (R)-2-(2′-(1-Cyanocyclopropyl)-[1,1′-biphenyl]-4-yl)-2-(3-(2-ethynylthiazol-4-yl)ureido)ethyl carbamate] | ≤ 0.2 µM
C#Cc1nc(NC(=O)N[C@@H](COC(N)=O)c2ccc(-c3cccc(C4(C#N)CC4)n3)cc2)cs1 [Compound A56, (R)-2-(4-(6-(1-Cyanocyclopropyl)pyridin-2-yl)phenyl)-2-(3-(2-ethynylthiazol-4-yl)ureido)ethyl carbamate] | ≤ 0.2 µM
C#Cc1nc(NC(=O)N[C@@H](COC(N)=O)c2ccc(-c3cc(C4(C#N)CC4)ccn3)cc2)cs1 [Compound A57, (R)-2-(4-(4-(1-Cyanocyclopropyl)pyridin-2-yl)phenyl)-2-(3-(2-ethynylthiazol-4-yl)ureido)ethyl carbamate] | ≤ 0.2 µM
C#Cc1nc(NC(=O)N[C@@H](COC(N)=O)c2ccc(-c3ncccc3C3(C#N)CC3)cc2)cs1 [Compound A58, (R)-2-(4-(3-(1-Cyanocyclopropyl)pyridin-2-yl)phenyl)-2-(3-(2-ethynylthiazol-4-yl)ureido)ethyl carbamate] | ≤ 0.2 µM
C#Cc1nc(NC(=O)N[C@@H](CO)c2ccc(-c3ccccc3C3(C#N)CC3)nc2)cs1 [Compound A59, (R)-1-(1-(6-(2-(1-Cyanocyclopropyl)phenyl)pyridin-3-yl)-2-hydroxyethyl)-3-(2-ethynylthiazol-4-yl)urea] | ≤ 0.2 µM
C#Cc1nc(NC(=O)N[C@@H](COC(N)=O)c2ccc(-c3ccccc3C3(C#N)CC3)cn2)cs1 [Compound A60, (R)-2-(5-(2-(1-Cyanocyclopropyl)phenyl)pyridin-2-yl)-2-(3-(2-ethynylthiazol-4-yl)ureido)ethyl carbamate] | ≤ 0.2 µM
C#Cc1nc(NC(=O)N[C@H](COC(N)=O)c2ccc(-c3ccccc3C3(C#N)CC3)cn2)cs1 [Compound A61, (S)-2-(5-(2-(1-Cyanocyclopropyl)phenyl)pyridin-2-yl)-2-(3-(2-ethynylthiazol-4-yl)ureido)ethyl carbamate] | ≤ 0.2 µM
C#Cc1nc(NC(=O)N[C@@H](CO)c2ccc(-c3cccnc3C3(C#N)CC3)cc2)cs1 [Compound A62, (R)-1-(1-(4-(2-(1-Cyanocyclopropyl)pyridin-3-yl)phenyl)-2-hydroxyethyl)-3-(2-ethynylthiazol-4-yl)urea] | ≤ 0.2 µM
C#Cc1nc(NC(=O)N[C@@H](COC(N)=O)c2ccc(-c3cccnc3C3(C#N)CC3)cc2)cs1 [Compound A63, (R)-2-(4-(2-(1-Cyanocyclopropyl)pyridin-3-yl)phenyl)-2-(3-(2-ethynylthiazol-4-yl)ureido)ethyl carbamate] | ≤ 0.2 µM
C#Cc1nc(NC(=O)N[C@@H](CO)c2ccc(-c3cc(F)cnc3C3(C#N)CC3)cc2)cs1 [Compound A64, (R)-1-(1-(4-(2-(1-Cyanocyclopropyl)-5-fluoropyridin-3-yl)phenyl)-2-hydroxy-ethyl)-3-(2-ethynylthiazol-4-yl)urea] | ≤ 0.2 µM
C#Cc1nc(NC(=O)N[C@@H](CO)c2ccc(-c3cccnc3C3(C#N)CC3)c(Cl)c2)cs1 [Compound A65, (R)-1-(1-(3-Chloro-4-(2-(1-cyanocyclopropyl)pyridin-3-yl)phenyl)-2-hydroxy-ethyl)-3-(2-ethynylthiazol-4-yl)urea] | ≤ 0.2 µM
C#Cc1nc(NC(=O)N[C@H](CO)c2ccc(-c3cccnc3C3(C#N)CC3)c(Cl)c2)cs1 [Compound A66, (S)-1-(1-(3-Chloro-4-(2-(1-cyanocyclopropyl)pyridin-3-yl)phenyl)-2-hydroxy-ethyl)-3-(2-ethynylthiazol-4-yl)urea] | ≤ 0.2 µM
C#Cc1nc(NC(=O)N(C)[C@@H](CO)c2ccc(-c3cccnc3C3(C#N)CC3)c(Cl)c2)cs1 [Compound A67, (R)-1-(1-(3-Chloro-4-(2-(1-cyanocyclopropyl)pyridin-3-yl)phenyl)-2-hydroxy-ethyl)-3-(2-ethynylthiazol-4-yl)-1-methylurea] | ≤ 0.2 µM
C#Cc1nc(NC(=O)N[C@@H](CO)c2ccc(-c3cccnc3C3(C#N)CC3)c(F)c2)cs1 [Compound A68, (R)-1-(1-(4-(2-(1-Cyanocyclopropyl)pyridin-3-yl)-3-fluorophenyl)-2-hydroxy-ethyl)-3-(2-ethynylthiazol-4-yl)urea] | ≤ 0.2 µM
C#Cc1nc(NC(=O)N[C@@H](COC(N)=O)c2ccc(-c3cccnc3C3(C#N)CC3)c(Cl)c2)cs1 [Compound A69, (R)-2-(3-Chloro-4-(2-(1-cyanocyclopropyl)pyridin-3-yl)phenyl)-2-(3-(2-ethynyl-thiazol-4-yl)ureido)ethyl carbamate] | ≤ 0.2 µM

Next, values leading:

EC50 | SMILES
≤ 0.2 µM | C#Cc1nc(NC(=O)NCC(=O)N2CCN(c3ccccc3C#N)CC2)cs1 [Compound A36, 1-(2-(4-(2-Cyanophenyl)piperazin-1-yl)-2-oxoethyl)-3-(2-ethynylthiazol-4-yl)urea]
≤ 0.2 µM | C#Cc1nc(NC(=O)NCC2CCN(c3ccccc3C#N)CC2)cs1 [Compound A37, 1-((1-(2-Cyanophenyl)piperidin-4-yl)methyl)-3-(2-ethynylthiazol-4-yl)urea]
≤ 0.2 µM | C#Cc1nc(NC(=O)NCC23CC4CC(CC(C4)C2)C3)cs1 [Compound A38, 1-(Adamantan-1-ylmethyl)-3-(2-ethynylthiazol-4-yl)urea]
≤ 0.2 µM | C#Cc1nc(NC(=O)N[C@@H](CO)c2ccc(-c3cccc4ncsc34)cc2)cs1 [Compound A40, (R)-1-(1-(4-(Benzo[d]thiazol-7-yl)phenyl)-2-hydroxyethyl)-3-(2-ethynylthiazol-4-yl)urea]
≤ 0.2 µM | C#Cc1nc(NC(=O)N[C@H](CO)c2ccc(-c3cccc4ncsc34)cc2)cs1 [Compound A41, (S)-1-(1-(4-(Benzo[d]thiazol-7-yl)phenyl)-2-hydroxyethyl)-3-(2-ethynylthiazol-4-yl)urea]
≤ 0.2 µM | C#Cc1nc(NC(=O)N[C@@H](CO)c2ccc(-c3cccc(N4CCCC4)c3)cc2)cs1 [Compound A42, (R)-1-(2-Ethynylthiazol-4-yl)-3-(2-hydroxy-1-(3′-(pyrrolidin-1-yl)-[1,1′-biphenyl]-4-yl)ethyl)urea]
≤ 0.2 µM | C#Cc1nc(NC(=O)N[C@@H](C(=O)NC)c2ccc(-c3cccnc3C3(C#N)CC3)cc2)cs1 [Compound A43, (R)-2-(4-(2-(1-Cyanocyclopropyl)pyridin-3-yl)phenyl)-2-(3-(2-ethynylthiazol-4-yl)ureido)-N-methylacetamide]
≤ 0.2 µM | C#Cc1nc(NC(=O)N[C@@H](CO)c2ccc(-c3ccccc3C#N)cc2)cs1 [Compound A44, (R)-1-(1-(2′-Cyano-[1,1′-biphenyl]-4-yl)-2-hydroxyethyl)-3-(2-ethynylthiazol-4-yl)urea]
≤ 0.2 µM | C#Cc1nc(NC(=O)N[C@@H](CO)c2ccc(-c3ccccc3C#N)cn2)cs1 [Compound A45, (R)-1-(1-(5-(2-Cyanophenyl)pyridin-2-yl)-2-hydroxyethyl)-3-(2-ethynylthiazol-4-yl)urea]
≤ 0.2 µM | C#Cc1nc(NC(=O)N[C@@H](COC(N)=O)c2ccc(-c3ccccc3C#N)cc2)cs1 [Compound A46, (R)-2-(2′-Cyano-[1,1′-biphenyl]-4-yl)-2-(3-(2-ethynylthiazol-4-yl)ureido)ethyl carbamate]
≤ 0.2 µM | C#Cc1nc(NC(=O)N[C@@H](COC(N)=O)c2ccc(-c3ncccc3C#N)cc2)cs1 [Compound A47, (R)-2-(4-(3-Cyanopyridin-2-yl)phenyl)-2-(3-(2-ethynylthiazol-4-yl)ureido)ethyl carbamate]
